Experimental data taken from patent US5998362A, “Conjugates useful in the treatment of prostate cancer” (priority 1997, dated 1999).
Where a SMILES comes first, the peptide text is derived from it. [ ]: non-standard residue; d: D form. The star is where a group is joined. Decanoyl(3,6,9-trioxa) = COCCOCCOCC(=O)*; Glyceroyl(2S) = O=C([C@@H](O)CO)*; Glyceroyl(2R) = O=C([C@H](O)CO)*; hArg = N=C(N)NCCCC[C@H](N)C(=O)O; 3Pal = N[C@@H](Cc1cccnc1)C(=O)O; MeOCH2CH2OCH2CO = COCCOCC(=O)*; X4 = O=C([C@H](O)[C@@H](O)CO)*; Chg = N[C@H](C(=O)O)C1CCCCC1; hSer = N[C@@H](CCO)C(=O)O; Nle = CCCC[C@H](N)C(=O)O; Glycolyl = O=C(CO)*; X3 = O=C(C(O)CO)*

biological target: free PSA (Homo sapiens, UniProt P07288); experiment: Recognition of oligopeptides by free PSA (time to 50% cleavage, HPLC); conditions: Table 2, oligopeptides; PSA digestion buffer 12 mM Tris pH8.0, 25 mM NaCl, 0.5 mM CaCl2; substrate:PSA 100 to 1
Sequence (P07288 25-261): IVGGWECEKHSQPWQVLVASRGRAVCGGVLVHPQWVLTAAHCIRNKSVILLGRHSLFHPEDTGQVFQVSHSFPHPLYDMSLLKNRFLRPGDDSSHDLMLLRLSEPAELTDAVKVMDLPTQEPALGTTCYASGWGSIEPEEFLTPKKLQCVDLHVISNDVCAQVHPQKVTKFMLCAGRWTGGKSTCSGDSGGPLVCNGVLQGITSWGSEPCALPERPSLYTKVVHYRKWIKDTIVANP
Protocol: The oligopeptides prepared as described in Example 1 were individually dissolved in PSA digestion buffer (12 mM tris(hydroxymethyl)-aminomethane pH8.0, 25 mM NaCl, 0.5 mM CaCl2) and the solution added to PSA at a molar ration of 100 to 1. The reaction is quenched after various reaction times by the addition of trifluoroacetic acid (TFA) to a final 1% (volume/volume). The quenched reaction was analyzed by HPLC on a reversed-phase C18 column using an aqueous 0.1% TFA/acetonitrile gradient. […] Oligopeptides containing free amine moieties (ie. comprising hArg, Orn, Lys and or 3PAL) were tested as TFA salts. All other oligopeptides were tested as neutral compounds.

Row | SMILES | Time to 50% Substrate Cleavage by York PSA [min]
1 | CC(C)C[C@H](NC(=O)[C@H](CO)NC(=O)[C@H](CCC(N)=O)NC(=O)[C@@H](NC(=O)[C@H](CO)NC(=O)[C@H](CO)NC(=O)[C@H](CO)NC(=O)[C@@H](O)CO)C1CCCCC1)C(=O)O [(I)2,3-dihydroxypropionyl-SSSChgQ-SL-acid] ({Glyceroyl(2S)}-SSS[Chg]QSL-OH) | 110

same assay, conditions: Table 2, oligopeptides; abbreviations not defined

Row | SMILES | Solubility remark in the cleavage column (INSOLUBLE / PS / PP)
2 | CCCC[C@H](NC(=O)[C@H](CO)NC(=O)[C@H](CCC(N)=O)NC(=O)[C@@H](NC(=O)[C@H](CCCCNC(=N)N)NC(=O)[C@H](CO)NC(C)=O)C1CCCCC1)C(=O)O [Ac-ShRChgQ-SNle-acid] (Ac-S[hArg][Chg]QS[Nle]-OH) | INSOLUBLE

same assay, conditions: free psa

Row | SMILES | Time to 50% Substrate Cleavage by York PSA (Min), values marked * [min]
3 | CC(C)C[C@H](NC(=O)[C@H](CO)NC(=O)[C@H](CCC(N)=O)NC(=O)[C@@H](NC(=O)[C@H](CO)NC(=O)[C@H](CO)NC(=O)[C@H](CCCCNC(=N)N)NC(=O)[C@@H](O)CO)C1CCCCC1)C(=O)O [2(S)2,3-dihydroxypropionly-hRSSChgQ-SL-acid] ({Glyceroyl(2S)}-[hArg]SS[Chg]QSL-OH) | 25
4 | CC(C)C[C@H](NC(=O)[C@H](CO)NC(=O)[C@H](CCC(N)=O)NC(=O)[C@@H](NC(=O)[C@H](CCCCNC(=N)N)NC(=O)[C@H](CO)NC(=O)[C@@H](O)CO)C1CCCCC1)C(=O)O [2(S)-2,3-dihydroxy propionylShRChgQSL-acid] ({Glyceroyl(2S)}-S[hArg][Chg]QSL-OH) | 35
5 | CC(C)C[C@H](NC(=O)[C@H](CO)NC(=O)[C@H](CCC(N)=O)NC(=O)[C@@H](NC(=O)[C@H](CCCCNC(=N)N)NC(=O)[C@H](CO)NC(=O)CO)C1CCCCC1)C(=O)O [2-hydroxyacetyl-ShRChgQ-SL-acid] (Glycolyl-S[hArg][Chg]QSL-OH) | 30
6 | CC(C)C[C@H](NC(=O)[C@H](CO)NC(=O)[C@H](CCC(N)=O)NC(=O)[C@H](Cc1ccc(O)cc1)NC(=O)[C@H](CCCCNC(=N)N)NC(=O)CO)C(=O)O [2-hydroxyacetylhRYQ-SL-acid] (Glycolyl-[hArg]YQSL-OH) | 105
7 | CC(=O)N[C@@H](CCCCNC(=N)N)C(=O)N[C@@H](CO)C(=O)N[C@@H](CO)C(=O)N[C@H](C(=O)N[C@@H](CCC(N)=O)C(=O)N[C@@H](CO)C(=O)N[C@@H](CC(C)C)C(=O)O)C1CCCCC1 [AChRSSChgQ-SL-acid] (Ac-[hArg]SS[Chg]QSL-OH) | 45
8 | COCCOCC(=O)N[C@@H](CO)C(=O)N[C@@H](CCCCNC(=N)N)C(=O)N[C@H](C(=O)N[C@@H](CCC(N)=O)C(=O)N[C@@H](CO)C(=O)N[C@@H](CC(C)C)C(=O)O)C1CCCCC1 [PEG(1)-ShRChgQ-SL-acid] (MeOCH2CH2OCH2CO-S[hArg][Chg]QSL-OH) | 120

same assay, conditions: free psa, pH 8

Row | SMILES | Time to 50% Substrate Cleavage by York PSA [min]
9 | CC(C)C[C@H](NC(=O)[C@H](CO)NC(=O)[C@H](CCC(N)=O)NC(=O)[C@@H](NC(=O)[C@H](CO)NC(=O)[C@H](CO)NC(=O)CNC(=O)C(O)CO)C1CCCCC1)C(=O)O (stereo partly drawn) [2,3-dihydroxypropionyl-GSSChgQ-SL-acid] (X3-GSS[Chg]QSL-OH) | 160
10 | CC(C)C[C@H](NC(=O)[C@H](CO)NC(=O)[C@H](CCC(N)=O)NC(=O)[C@@H](NC(=O)[C@H](CO)NC(=O)[C@H](CO)NC(=O)[C@H](CO)NC(=O)C(O)CO)C1CCCCC1)C(=O)O (stereo partly drawn) [2,3-dihydroxypropionyl-SSSChgQ-SL-acid] (X3-SSS[Chg]QSL-OH) | 120
11 | CC(C)C[C@H](NC(=O)[C@H](CO)NC(=O)[C@H](CCC(N)=O)NC(=O)[C@@H](NC(=O)[C@H](CO)NC(=O)[C@H](CO)NC(=O)[C@H](CCCCNC(=N)N)NC(=O)C(O)CO)C1CCCCC1)C(=O)O (stereo partly drawn) [2,3-dihydroxypropionyl-hRSSChgQ-SL-acid] (X3-[hArg]SS[Chg]QSL-OH) | 50
12 | CC(C)C[C@H](NC(=O)[C@H](CO)NC(=O)[C@H](CCC(N)=O)NC(=O)[C@@H](NC(=O)[C@H](CO)NC(=O)[C@H](CO)NC(=O)[C@H](CCO)NC(=O)C(O)CO)C1CCCCC1)C(=O)O (stereo partly drawn) [2,3-dihydroxypropionyl-hSSSChgQ-SL-acid] (X3-[hSer]SS[Chg]QSL-OH) | 160
13 | CC(C)C[C@H](NC(=O)[C@H](CO)NC(=O)[C@H](CCC(N)=O)NC(=O)[C@@H](NC(=O)[C@H](CCCCNC(=N)N)NC(=O)[C@H](CO)NC(=O)C(O)CO)C1CCCCC1)C(=O)O (stereo partly drawn) [2,3-dihydroxypropionylShRChgQ-SL-acid] (X3-S[hArg][Chg]QSL-OH) | 75
14 | CC(C)C[C@H](NC(=O)[C@H](CO)NC(=O)[C@H](CCC(N)=O)NC(=O)[C@@H](NC(=O)[C@H](CO)NC(=O)[C@H](CO)NC(=O)CO)C1CCCCC1)C(=O)O [2-hydroxyacetyl-SSChgQ-SL-acid] (Glycolyl-SS[Chg]QSL-OH) | 180
15 | CC(C)C[C@H](NC(=O)[C@H](CO)NC(=O)[C@H](CCC(N)=O)NC(=O)[C@@H](NC(=O)[C@H](CCCCNC(=N)N)NC(=O)[C@H](CO)NC(=O)CO)C1CCCCC1)C(=O)O [2-hydroxyacetyl-ShRChgQ-SL-acid] (Glycolyl-S[hArg][Chg]QSL-OH) | 120
16 | CC(C)C[C@H](NC(=O)[C@H](CO)NC(=O)[C@H](CCC(N)=O)NC(=O)[C@@H](NC(=O)[C@H](CO)NC(=O)[C@H](C)NC(=O)[C@H](CCCCNC(=N)N)NC(=O)CO)C1CCCCC1)C(=O)O [2-hydroxyacetyl-hRASChgQ-SL-acid] (Glycolyl-[hArg]AS[Chg]QSL-OH) | 70
17 | CCCC[C@H](NC(=O)[C@H](CO)NC(=O)[C@H](CCC(N)=O)NC(=O)[C@H](Cc1ccc(O)cc1)NC(=O)[C@H](CO)NC(=O)[C@H](CO)NC(=O)[C@H](CCCCNC(=N)N)NC(=O)CO)C(=O)O [2-hydroxyacetyl-hRSSYQ-SNle-acid] (Glycolyl-[hArg]SSYQS[Nle]-OH) | 45
18 | CC(C)C[C@H](NC(=O)[C@H](CO)NC(=O)[C@H](CCC(N)=O)NC(=O)[C@@H](NC(=O)[C@H](CCCCNC(=N)N)NC(=O)[C@H](CO)NC(=O)[C@H](O)[C@@H](O)CO)C1CCCCC1)C(=O)O [(2R,3S)2,3,4-trihydroxybutanoyl-ShRChgQ-SL-acid] (X4-S[hArg][Chg]QSL-OH) | 90
19 | CC(C)C[C@H](NC(=O)[C@H](CO)NC(=O)[C@H](CCC(N)=O)NC(=O)[C@@H](NC(=O)[C@H](CO)NC(=O)[C@H](CO)NC(=O)[C@H](Cc1cccnc1)NC(=O)[C@@H](O)CO)C1CCCCC1)C(=O)O [(I)2,3-dihydroxypropionyl-3PAL-SSChgQ-SL-acid] ({Glyceroyl(2S)}-[3Pal]SS[Chg]QSL-OH) | 70
20 | CC(C)C[C@H](NC(=O)[C@H](CO)NC(=O)[C@H](CCC(N)=O)NC(=O)[C@@H](NC(=O)[C@H](CO)NC(=O)[C@H](CO)NC(=O)[C@@H](O)CO)C1CCCCC1)C(=O)O [(I)2,3-dihydroxypropionyl-SSChgQ-SL-acid] ({Glyceroyl(2S)}-SS[Chg]QSL-OH) | 180
21 | CC(C)C[C@H](NC(=O)[C@H](CO)NC(=O)[C@H](CCC(N)=O)NC(=O)[C@@H](NC(=O)[C@H](CO)NC(=O)[C@H](CO)NC(=O)[C@H](CO)NC(=O)[C@@H](O)CO)C1CCCCC1)C(=O)O [(I)2,3-dihydroxypropionyl-SSSChgQ-SL-acid] ({Glyceroyl(2S)}-SSS[Chg]QSL-OH) | 80
22 | CC(C)C[C@H](NC(=O)[C@H](CO)NC(=O)[C@H](CCC(N)=O)NC(=O)[C@@H](NC(=O)[C@H](CO)NC(=O)[C@H](CO)NC(=O)[C@H](CO)NC(=O)CO)C1CCCCC1)C(=O)O [(OH-Ac)SSSChgQ-SL-acid] (Glycolyl-SSS[Chg]QSL-OH) | 120
23 | CC(C)C[C@H](NC(=O)[C@H](CO)NC(=O)[C@H](CCC(N)=O)NC(=O)[C@@H](NC(=O)[C@H](CO)NC(=O)[C@H](CO)NC(=O)[C@H](Cc1cccnc1)NC(=O)[C@H](O)CO)C1CCCCC1)C(=O)O [(d)2,3-dihydroxypropionyl-3PAL-SSChgQSL-acid] ({Glyceroyl(2R)}-[3Pal]SS[Chg]QSL-OH) | 80
24 | CC(=O)N[C@@H](CCCCNC(=N)N)C(=O)N[C@@H](CO)C(=O)N[C@@H](CO)C(=O)N[C@H](C(=O)N[C@@H](CCC(N)=O)C(=O)N[C@@H](CO)C(=O)N[C@@H](CC(C)C)C(=O)O)C1CCCCC1 [AChRSSChgQ-SL-acid] (Ac-[hArg]SS[Chg]QSL-OH) | 120
25 | CC(=O)N[C@@H](CCCCNC(=N)N)C(=O)N[C@@H](C)C(=O)N[C@@H](CO)C(=O)N[C@H](C(=O)N[C@@H](CCC(N)=O)C(=O)N[C@@H](CO)C(=O)N[C@@H](CC(C)C)C(=O)O)C1CCCCC1 [Ac-hRASChgQ-SL-acid] (Ac-[hArg]AS[Chg]QSL-OH) | 50
26 | COCCOCC(=O)N[C@@H](CO)C(=O)N[C@@H](CCCCNC(=N)N)C(=O)N[C@@H](Cc1ccc(O)cc1)C(=O)N[C@@H](CCC(N)=O)C(=O)N[C@@H](CO)C(=O)N[C@@H](CC(C)C)C(=O)O [PEG(1)-ShRYQ-SL-acid] (MeOCH2CH2OCH2CO-S[hArg]YQSL-OH) | 90
27 | COCCOCC(=O)N[C@@H](CCCCNC(=N)N)C(=O)N[C@@H](CO)C(=O)N[C@@H](CO)C(=O)N[C@H](C(=O)N[C@@H](CCC(N)=O)C(=O)N[C@@H](CO)C(=O)N[C@@H](CC(C)C)C(=O)O)C1CCCCC1 [PEG(1)-hRSSChgQ-SL-acid] (MeOCH2CH2OCH2CO-[hArg]SS[Chg]QSL-OH) | 30
28 | COCCOCCOCC(=O)N[C@@H](Cc1cccnc1)C(=O)N[C@@H](CO)C(=O)N[C@@H](CO)C(=O)N[C@H](C(=O)N[C@@H](CCC(N)=O)C(=O)N[C@@H](CO)C(=O)N[C@@H](CC(C)C)C(=O)O)C1CCCCC1 [PEG(2)-3PAL-SSChgQ-SL-acid] ({Decanoyl(3,6,9-trioxa)}-[3Pal]SS[Chg]QSL-OH) | 80
29 | COCCOCCOCC(=O)N[C@@H](CO)C(=O)N[C@@H](CCCCNC(=N)N)C(=O)N[C@H](C(=O)N[C@@H](CCC(N)=O)C(=O)N[C@@H](CO)C(=O)N[C@@H](CC(C)C)C(=O)O)C1CCCCC1 [PEG(2)-S-hRChgQ-SL-acid] ({Decanoyl(3,6,9-trioxa)}-S[hArg][Chg]QSL-OH) | 30
30 | COCCOCCOCC(=O)N[C@@H](CO)C(=O)N[C@@H](CO)C(=O)N[C@@H](Cc1ccc(O)cc1)C(=O)N[C@@H](CCC(N)=O)C(=O)N[C@@H](CO)C(=O)N[C@@H](CC(C)C)C(=O)O [PEG(2)-SSYQ-SL-acid] ({Decanoyl(3,6,9-trioxa)}-SSYQSL-OH) | 150
